In brackets after ≈: the same amount, converted by molar mass.
How the values were obtained:
HCT-116 = test: In vitro cytotoxic activity (growth inhibition) of compound against HCT 116 cancer cell line was determined; format: functional; settings: Homo sapiens
Tubulin = Tubulin (Sus scrofa, UniProt P02554+P02550); test: Concentration of compound required to inhibit tubulin polymerization (Microtubule assembly) was determined by the turbidity formation after 20 min of incubation; format: functional
[1] = target: Tubulin alpha chain (Sus scrofa) (UniProt P02550); test: Inhibitory binding percentage of compound towards colchicine site in tubulin using tubulin-[3H]colchicine as radioligand at a concentration of 200 uM
[2] = target: Tubulin alpha chain (Sus scrofa) (UniProt P02550); test: Inhibitory binding percentage of compound towards colchicine site in tubulin using tubulin-[3H]colchicine as radioligand at a concentration of 100 uM
PC-12 = test: In vitro cytotoxic activity (growth inhibition) of compound against PC-12 human cancer cell line was determined

Tubulin alpha chain (Sus scrofa), sequence (P02550 whole entry, looked up): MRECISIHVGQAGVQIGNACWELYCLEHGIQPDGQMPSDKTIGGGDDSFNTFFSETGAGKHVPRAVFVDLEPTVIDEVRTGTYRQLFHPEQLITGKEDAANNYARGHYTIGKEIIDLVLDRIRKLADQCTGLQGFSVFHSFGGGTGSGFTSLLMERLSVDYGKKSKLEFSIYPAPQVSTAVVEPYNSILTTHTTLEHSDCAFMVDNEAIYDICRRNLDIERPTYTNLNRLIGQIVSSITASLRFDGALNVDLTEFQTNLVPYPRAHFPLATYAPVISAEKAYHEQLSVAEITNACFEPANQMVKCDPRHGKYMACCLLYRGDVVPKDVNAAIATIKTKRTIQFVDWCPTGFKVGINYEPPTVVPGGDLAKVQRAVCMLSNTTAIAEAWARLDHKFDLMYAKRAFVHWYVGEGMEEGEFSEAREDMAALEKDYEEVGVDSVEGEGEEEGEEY

Row | Structure (SMILES) | GI50 (HCT-116) | IC50 (Tubulin) | Inhibitory binding [1] | Inhibitory binding [2] | GI50 (PC-12)
1 | Cc1c(/C=C/CN2CCN(c3cc(F)cc(F)c3)CC2)cnn1-c1ncccn1.Cl | 0.0701 µg/mL | 9.08 µM | 93% | 82% | 0.0625 µg/mL
2 | CC[C@]1(O)C[C@@H]2CN(CCc3c([nH]c4ccccc34)[C@@](C(=O)OC)(c3cc4c(cc3OC)N(C)[C@H]3[C@@](O)(C(=O)OC)[C@H](OC(C)=O)[C@]5(CC)C=CCN6CC[C@]43[C@@H]65)C2)C1 [VINBLASTINE] | 0.001 µg/mL (≈ 0.00123 µM) |  |  |  | 0.0102 µg/mL (≈ 0.0126 µM)
3 | Cc1c(/C=C/CN2CCN(c3cc(F)cc(F)c3)CC2)cnn1-c1nccc(N)n1.Cl | 0.0208 µg/mL | 11.05 µM |  |  | 0.0216 µg/mL
4 | Cc1c(/C=C/CN2CCN(c3cccc(Cl)c3)CC2)cnn1-c1ncccn1.Cl | 0.254 µg/mL | 35.96 µM |  |  | 0.181 µg/mL
5 | COc1cc2c(c(OC)c1OC)-c1ccc(OC)c(=O)cc1[C@@H](NC(C)=O)CC2 [COLCHICINE] | 0.0084 µg/mL (≈ 0.021 µM) |  | 100% | 98% | 0.0315 µg/mL (≈ 0.0789 µM)
6 | Cc1c(/C=C/CN2CCN(c3cc(F)cc(F)c3)CC2)cnn1-c1ccnc(N)n1.Cl | 0.0329 µg/mL | 3.72 µM |  |  | 0.0199 µg/mL

From ChEMBL document CHEMBL1135557 (Bioorg Med Chem Lett, 2002)
